Experimental data from article PMC10486429, “Investigations Using Albumin Binders to Modify the Tissue Distribution Profile of Radiopharmaceuticals Exemplified with Folate Radioconjugates” (Cancers, 2023).

Tested on: human serum albumin (HSA) in human blood plasma
Experiment: Ultrafiltration albumin-binding assay of 177Lu-DOTA-ALBs, human blood plasma
Procedure: The relative affinities of ^177Lu-labeled DOTA-ALBs (50 MBq/nmol) to albumin in mouse and human blood plasma were determined using an ultrafiltration assay according to a previously described procedure (Supplementary Materials Section S5). A dry chemistry analyzer (DRI-CHEM 4000i, FUJIFILM, Japan) was used to determine the mouse serum albumin concentration (conc. MSA: ~550 µM) in mouse blood plasma (Rockland Immunochemicals, Inc., Pottstown, PA, USA, Lot No. 23248) and the human serum albumin concentration (conc. HSA: ~800 µM) in human blood plasma of a healthy volunteer (Stiftung Blutspende SRK Aargau-Solothurn, Aarau, Switzerland). The albumin-bound fraction of the radioligands was determined at variable molar concentration ratios of serum albumin to the respective radiolabeled DOTA-ALB using a blood plasma/PBS dilution series and a constant amount of ^177Lu-DOTA-ALBs (0.5 MBq; 0.01 nmol). The free (albumin-unbound) radioligand fraction was separated from the albumin-bound fraction using Centrifree filter devices (cut-off 10 kDa; Merck Millipore, Carrigtwohill, Ireland) to enable the calculation of the percentage of albumin-bound radioligand. […] The results were presented as average ± standard deviation (SD) of 3 independent experiments. […]
S5. Relative Albumin-binding Properties of 177Lu-DOTA-ALBs
Purpose: The relative albumin-binding affinities of the 177Lu-DOTA-ALBs were in-vestigated using mouse and human blood plasma.
Methods: Relative binding affinities of 177Lu-DOTA-ALBs to mouse (MSA) and hu-man (HSA) serum albumin in the respective blood plasma were determined using an ul-trafiltration assay according to a previously described procedure. In brief, an average MSA concentration of ⁓550 µM was measured for mouse blood plasma (Rockland Immu-nochemicals, Inc., Pottstown, PA, USA, Lot N° 23248), while an HSA concentration of ⁓800 µM was determined for human blood plasma (Stiftung Blutspende SRK Aargau-Solothurn, Aarau, Switzerland) using a dry chemistry analyzer (DRI-CHEM 4000i, FUJI-FILM, Japan). A fixed amount of the respective 177Lu-DOTA-ALB (50 MBq/nmol:, ~500 kBq, 25 µL, 0.01 nmol) was added to a defined volume (250 µL) of mouse and human […]
and 0.01 to 20000, respectively. […]
off 10 kDa; Merck Millipore, Carrigtwohill, Ireland). The albumin-bound fractions at the […]
the half-maximum binding (B50). The relative albumin-binding affinities were defined as […]
sented as average ± SD of 3 independent experiments.
Results: The results are reported in the main article.
S6. Blood Clearance of 177Lu-DOTA-ALBs […]
their blood clearance profile.
Blood clearance of 177Lu-labeled DOTA-ALBs were determined in n=3–6 mice per radioligand. The radiolabeled DOTA-ALBs ( […]
various timepoints over the following 48 h. […]
up to 3 and 7 days, respectively. […]

SMILES | Fold higher albumin-binding affinity than [177Lu]Lu-DOTA-ALB-24 | Albumin-binding affinity relative to [177Lu]Lu-DOTA-ALB-1 | Fold stronger albumin-binding affinity than [177Lu]Lu-DOTA-ALB-25
O=C(O)CN1CCN(CC(=O)O)CCN(CC(=O)NCCC(=O)N[C@@H](CCCCNC(=O)CCCc2ccc(I)cc2)C(=O)O)CCN(CC(=O)O)CC1.[177Lu] [[^177Lu]Lu-DOTA-ALB-1] | ~ 10 fold |  | 
O=C(O)CN1CCN(CC(=O)O)CCN(CC(=O)NCCC(=O)N[C@@H](CCCCNC(=O)c2ccc(CNC(=O)CCCc3ccc(I)cc3)cc2)C(=O)O)CCN(CC(=O)O)CC1.[177Lu] [[^177Lu]Lu-DOTA-ALB-3] |  | almost no difference | ~ 4 fold
O=C(O)CN1CCN(CC(=O)O)CCN(CC(=O)NCCC(=O)N[C@@H](CCCCNC(=O)c2ccc(CNC(=O)CCCCc3ccc(I)cc3)cc2)C(=O)O)CCN(CC(=O)O)CC1.[177Lu] [[^177Lu]Lu-DOTA-ALB-25] | ~ 3 fold |  | 
